From patent US9113629B2, “4-amino-6-(4-substituted-phenyl)-picolinates and 6-amino-2-(4-substituted-phenyl)-pyrimidine-4-carboxylates and their use as herbicides” (DOW AGROSCIENCES LLC, priority 2013, dated 2015)
Where two headings read alike, the source gives them in different places.

Tests used:
[1] = tested on: Key Grass and Sedge Weeds as well as Grass Crops; assay: Post-emergent Test II herbicidal activity (Table 6); format: in vivo; conditions: post-emergence, 336 h; for pest or weed control at 70 g/ha: application rate 70 g ai/ha; for pest or weed control at 140 g/ha: application rate 140 g ai/ha
Procedure, shortened: (§1)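 Plants grown in Metro-Mix 360 (pH 6.0–6.8) in a greenhouse (~15 h photoperiod, 23–29 °C day) to first or second true leaf stage, then sprayed with compound in acetone/DMSO/aqueous crop-oil-surfactant carrier at 187 L/ha by track sprayer. Injury visually scored 0–100% versus untreated plants after 14 d.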

[2] = tested on: Key Broadleaf Weed and Crop Species; assay: Post-emergent Test II herbicidal activity (Table 5); format: in vivo; conditions: post-emergence, 336 h, post-emergent, 14 days after application; for pest or weed control at 70 g/ha: 70 g ai/ha; for pest or weed control at 140 g/ha: 140 g ai/ha
Procedure, shortened: as §1

[3] = Triticum aestivum, TRZSS (wheat), read-out: Visual Growth Reduction (%) 14 Days After Application, TRZSS
[4] = CYPES: yellow nutsedge (Cyperus esculentus), read-out: Visual Growth Reduction (%) 14 Days After Application, CYPES
[5] = DIGSA: crabgrass (Digitaria sanguinalis), read-out: Visual Growth Reduction (%) 14 Days After Application, DIGSA
[6] = ECHCG: barnyardgrass (Echinochloa crus-galli), read-out: Visual Growth Reduction (%) 14 Days After Application, ECHCG
[7] = ORYSA: rice (Oryza sativa), read-out: Visual Growth Reduction (%) 14 Days After Application, ORYSA
[8] = SETFA: giant foxtail (Setaria faberi), read-out: Visual Growth Reduction (%) 14 Days After Application, SETFA
[9] = SORVU: grain sorghum (Sorghum vulgare), read-out: Visual Growth Reduction (%) 14 Days After Application, SORVU
[10] = ZEAMX: maize, corn (Zea mays), read-out: Visual Growth Reduction (%) 14 Days After Application, ZEAMX
[11] = ABUTH: velvetleaf (Abutilon theophrasti), read-out: Visual Growth Reduction (%) 14 Days After Application ABUTH
[12] = AMARE: redroot pigweed (Amaranthus retroflexus), read-out: Visual Growth Reduction (%) 14 Days After Application AMARE
[13] = BRSNN: oilseed-rape, canola (Brassica napus), read-out: Visual Growth Reduction (%) 14 Days After Application BRSNN
[14] = CHEAL: lambsquarters (Chenopodium album), read-out: Visual Growth Reduction (%) 14 Days After Application CHEAL
[15] = EPHHL: wild poinsettia (Euphorbia heterophylla), read-out: Visual Growth Reduction (%) 14 Days After Application EPHHL
[16] = HELAN: sunflower (Helianthus annuus), read-out: Visual Growth Reduction (%) 14 Days After Application HELAN
[17] = VIOTR: wild pansy (Viola tricolor), read-out: Visual Growth Reduction (%) 14 Days After Application VIOTR

SMILES	pest or weed control at 70 g/ha [1, 3] [%]	pest or weed control at 140 g/ha [1, 3] [%]	pest or weed control at 70 g/ha [1, 4] [%]	pest or weed control at 140 g/ha [1, 4] [%]	pest or weed control at 70 g/ha [1, 5] [%]	pest or weed control at 140 g/ha [1, 5] [%]	pest or weed control at 70 g/ha [1, 6] [%]	pest or weed control at 140 g/ha [1, 6] [%]	pest or weed control at 70 g/ha [1, 7] [%]	pest or weed control at 140 g/ha [1, 7] [%]	pest or weed control at 70 g/ha [1, 8] [%]	pest or weed control at 140 g/ha [1, 8] [%]	pest or weed control at 70 g/ha [1, 9] [%]	pest or weed control at 140 g/ha [1, 9] [%]	pest or weed control at 70 g/ha [1, 10] [%]	pest or weed control at 140 g/ha [1, 10] [%]	pest or weed control at 70 g/ha [2, 11] [%]	pest or weed control at 140 g/ha [2, 11] [%]	pest or weed control at 70 g/ha [2, 12] [%]	pest or weed control at 140 g/ha [2, 12] [%]	other results
COC(=O)c1nc(-c2ccc(I)c(F)c2)cc(N)c1Cl [Compound 66, methyl 4-amino-3-chloro-6-(3-fluoro-4-iodophenyl)picolinate]	0 to 29	0 to 29	45 to 59	95 to 100	60 to 74	60 to 74	0 to 29	60 to 74	0 to 29	0 to 29	0 to 29	0 to 29	75 to 84	85 to 94	0 to 29	0 to 29	85 to 94	85 to 94	95 to 100	95 to 100	pest or weed control at 70 g/ha [2, 13]: 45 to 59%; pest or weed control at 140 g/ha [2, 13]: 45 to 59%; pest or weed control at 70 g/ha [2, 14]: 85 to 94%; pest or weed control at 140 g/ha [2, 14]: 85 to 94%; pest or weed control at 70 g/ha [2, 15]: 95 to 100%; pest or weed control at 140 g/ha [2, 15]: 95 to 100%; pest or weed control at 70 g/ha [2, 16]: 85 to 94%; pest or weed control at 140 g/ha [2, 16]: 85 to 94%; pest or weed control at 70 g/ha [2, 17]: 0 to 29%; pest or weed control at 140 g/ha [2, 17]: 0 to 29%; melting point: 141 to 143 °C
COC(=O)c1nc(-c2ccc(I)cc2)c(C)c(N)c1Cl [Compound 136, methyl 4-amino-3-chloro-6-(4-iodophenyl)-5-methylpicolinate]	45 to 59	45 to 59	95 to 100	95 to 100	60 to 74	60 to 74	0 to 29	0 to 29	0 to 29	0 to 29	30 to 44	45 to 59	60 to 74	60 to 74	60 to 74	75 to 84	95 to 100	95 to 100	85 to 94	85 to 94	pest or weed control at 70 g/ha [2, 13]: 85 to 94%; pest or weed control at 140 g/ha [2, 13]: 85 to 94%; pest or weed control at 70 g/ha [2, 14]: 95 to 100%; pest or weed control at 140 g/ha [2, 14]: 95 to 100%; pest or weed control at 70 g/ha [2, 15]: 0 to 29%; pest or weed control at 140 g/ha [2, 15]: 0 to 29%; pest or weed control at 70 g/ha [2, 16]: 95 to 100%; pest or weed control at 140 g/ha [2, 16]: 95 to 100%; pest or weed control at 70 g/ha [2, 17]: 0 to 29%; pest or weed control at 140 g/ha [2, 17]: 0 to 29%; melting point: 115 to 118 °C
COC(=O)c1nc(-c2ccc(I)cc2F)cc(N)c1Cl [Compound 159]	60 to 74	60 to 74	95 to 100	95 to 100	85 to 94	85 to 94	85 to 94	95 to 100	0 to 29	0 to 29	75 to 84	95 to 100	95 to 100	95 to 100	60 to 74	75 to 84	95 to 100	95 to 100	95 to 100	95 to 100	pest or weed control at 70 g/ha [2, 13]: 85 to 94%; pest or weed control at 140 g/ha [2, 13]: 85 to 94%; pest or weed control at 70 g/ha [2, 14]: 95 to 100%; pest or weed control at 140 g/ha [2, 14]: 95 to 100%; pest or weed control at 70 g/ha [2, 15]: 95 to 100%; pest or weed control at 140 g/ha [2, 15]: 95 to 100%; pest or weed control at 70 g/ha [2, 16]: 75 to 84%; pest or weed control at 140 g/ha [2, 16]: 95 to 100%; pest or weed control at 70 g/ha [2, 17]: 0 to 29%; pest or weed control at 140 g/ha [2, 17]: 45 to 59%; melting point: 139.8 to 141.2 °C
COc1c(N)nc(-c2cc(F)c(Br)cc2F)nc1C(=O)O [Compound 11]	45 to 59	60 to 74	45 to 59	45 to 59	60 to 74	60 to 74	85 to 94	85 to 94	0 to 29	0 to 29	60 to 74	60 to 74	60 to 74	75 to 84	60 to 74	60 to 74	95 to 100	95 to 100	95 to 100	95 to 100	pest or weed control at 70 g/ha [2, 13]: 95 to 100%; pest or weed control at 140 g/ha [2, 13]: 95 to 100%; pest or weed control at 70 g/ha [2, 14]: 95 to 100%; pest or weed control at 140 g/ha [2, 14]: 95 to 100%; pest or weed control at 70 g/ha [2, 15]: 95 to 100%; pest or weed control at 140 g/ha [2, 15]: 95 to 100%; pest or weed control at 70 g/ha [2, 16]: 95 to 100%; pest or weed control at 140 g/ha [2, 16]: 95 to 100%; pest or weed control at 70 g/ha [2, 17]: 0 to 29%; pest or weed control at 140 g/ha [2, 17]: 45 to 59%; melting point: 132 to 133 °C
